≈ marks a conversion by molar mass, not a printed value.
How the values were obtained:
Format in all cases: physicochemical
[1] = Stability post-storage at 40° C./75% RH assessed by XRPD; settings: for Stability post-storage at 40° C./75% RH: form change assessed by XRPD
Experimental: (§1) Representative samples for the twenty-six forms were further analysed by NMR/IC and DSC. The stability of the samples after storage at 40° C./75% RH was also assessed by XRPD. Solubility in FeSSIF media was determined for selected samples. […] IC was employed to determine the molar equivalence for inorganic counterions, sulphate and phosphate.

[2] = Salt screen assessment compared to the HCl salt
Experimental: as §1

[3] = Thermodynamic solubility in FeSSIF; settings: for Solubility in FeSSiF / solubility at 24 h: fed state simulated intestinal fluid (FeSSIF), equilibrated at 25° C. for 24 hours; for XRPD of residue: residue of the FeSSIF solubility test, analysed by XRPD as a damp solid
Experimental: Solubility was determined by suspending sufficient compound in fed state simulated intestinal fluid (FeSSIF) to give a maximum final concentration of >3 mg/ml of the parent free-form of the compound. The suspension was equilibrated at 25° C. for 24 hours then the pH was measured. The suspension was then filtered through a glass fibre C filter. The residue was analysed by XRPD as a damp solid. The filtrate was diluted by an appropriate factor prior to analysis by HPLC. Quantitation by HPLC was performed with reference to a standard solution of approximately 0.2 mg/ml in DMSO. Different volumes of the standard, diluted and undiluted sample solutions were injected. The solubility was calculated using the peak areas determined by integration of the peak found at the same retention time as the principal peak in the standard injection. Analysis was performed on an Agilent HP1100 series system equipped with a diode array detector and using ChemStation software vB.04.03.

[4] = Thermal stability from onset of DSC events; settings: onsets of DSC events greater than 200° C.
Experimental: DSC data were collected on a Mettler DSC 823E equipped with a 34 position auto-sampler. The instrument was calibrated for energy and temperature using certified indium. Typically, 0.9-6 mg of each sample, in a pin-holed aluminum pan, was heated at 10° C./min from 25° C. to 350° C. A nitrogen purge at 50 ml/min was maintained over the sample. The instrument control and data analysis software was STARe v12.1.
The twenty remaining forms have thermal events occurring from as low as ˜30° C. These may be solvated/hydrated forms.

[5] = Gravimetric vapor sorption (GVS); settings: 25° C.
Experimental: Sorption isotherms were obtained using a SMS DVS Intrinsic moisture sorption analyzer, controlled by DVS Intrinsic Control software v1.0.1.2 (or v 1.0.1.3). The sample temperature was maintained at 25° C. by the instrument controls. The humidity was controlled by mixing streams of dry and wet nitrogen, with a total flow rate of 200 ml/min. The relative humidity was measured by a calibrated Rotronic probe (dynamic range of 1.0-100% RH), located near the sample. The weight change, (mass relaxation) of the sample as a function of % RH was constantly monitored by the microbalance (accuracy±0.005 mg). Approximately 13 mg of sample was placed in a tared mesh stainless steel basket under ambient conditions. The sample was loaded and unloaded at 40% RH and 25° C. (typical room conditions). A moisture sorption isotherm was performed as outlined below (two scans giving one complete cycle). The standard isotherm was performed at 25° C. at 10% RH intervals over a 0%-90% RH range. Data analysis was carried out using Microsoft Excel using DVS Analysis Suite v6.2 (or 6.1 or 6.0). The sample was recovered after completion of the isotherm and re-analyzed by XRPD.

SMILES | Stability post-storage at 40° C./75% RH [1] | stability and solubility when compared to the HCl salt [2] | Solubility in FeSSiF [3] | XRPD of residue [3] | thermal stability [4] | Stability after 14 days storage at 40° C./75% RH ([1]; 14 days, confirmed by XRPD) | solubility at 24 h ([3]; 25 °C, pH 4.9, fessif, thermodynamic from solid) | solubility at 24 h ([3]; pH 4.9, thermodynamic from solid) | uptake at 90% RH by GVS [5]
COc1ccc(-c2c(-c3ccc(C#N)c(F)c3)nc(N3CCC(N)CC3)n(C)c2=O)cc1F [SO4 1, 4-[2-(4-aminopiperidin-1-yl)-5-(3-fluoro-4-methoxyphenyl)-1-methyl-6-oxo-1,6-dihydropyrimidin-4-yl]-2-fluorobenzonitrile] | No form change | improved stability and solubility | 720 µg/mL (≈ 1590 µM) | Amorphous | good thermal stability |  |  |  | 
COc1ccc(-c2c(-c3ccc(C#N)c(F)c3)nc(N3CCC(N)CC3)n(C)c2=O)cc1F [BSA 1, 4-[2-(4-aminopiperidin-1-yl)-5-(3-fluoro-4-methoxyphenyl)-1-methyl-6-oxo-1,6-dihydropyrimidin-4-yl]-2-fluorobenzonitrile] | No form change | improved stability and solubility | 840 µg/mL (≈ 1860 µM) | BSA 1 - poor | good thermal stability |  |  |  | 
COc1ccc(-c2c(-c3ccc(C#N)c(F)c3)nc(N3CCC(N)CC3)n(C)c2=O)cc1F.Cl [HCL 1, 4-[2-(4-aminopiperidin-1-yl)-5-(3-fluoro-4-methoxyphenyl)-1-methyl-6-oxo-1,6-dihydropyrimidin-4-yl]-2-fluorobenzonitrile hydrochloride] | Extra peaks observed |  |  | Amorphous |  | Partial crystallization of a new form | 740 µg/mL | 750 µg/mL | 14%
COc1ccc(-c2c(-c3ccc(C#N)c(F)c3)nc(N3CCC(N)CC3)n(C)c2=O)cc1F [MSA 1, 4-[2-(4-aminopiperidin-1-yl)-5-(3-fluoro-4-methoxyphenyl)-1-methyl-6-oxo-1,6-dihydropyrimidin-4-yl]-2-fluorobenzonitrile] | No form change | improved stability and solubility | 1010 µg/mL (≈ 2240 µM) | Largely amorphous | good thermal stability |  |  |  | 
COc1ccc(-c2c(-c3ccc(C#N)c(F)c3)nc(N3CCC(N)CC3)n(C)c2=O)cc1F [pTSA 1, 4-[2-(4-aminopiperidin-1-yl)-5-(3-fluoro-4-methoxyphenyl)-1-methyl-6-oxo-1,6-dihydropyrimidin-4-yl]-2-fluorobenzonitrile] | No form change | improved stability and solubility | 870 µg/mL (≈ 1930 µM) | pTSA 1 | good thermal stability |  |  |  | 
COc1ccc(-c2c(-c3ccc(C#N)c(F)c3)nc(N3CCC(N)CC3)n(C)c2=O)cc1F [PHOA 1, 4-[2-(4-aminopiperidin-1-yl)-5-(3-fluoro-4-methoxyphenyl)-1-methyl-6-oxo-1,6-dihydropyrimidin-4-yl]-2-fluorobenzonitrile] | No form change | improved stability and solubility | 740 µg/mL (≈ 1640 µM) | Amorphous | good thermal stability |  |  |  | 
COc1ccc(-c2c(-c3ccc(C#N)c(F)c3)nc(N3CCC(N)CC3)n(C)c2=O)cc1F [BA 1, 4-[2-(4-aminopiperidin-1-yl)-5-(3-fluoro-4-methoxyphenyl)-1-methyl-6-oxo-1,6-dihydropyrimidin-4-yl]-2-fluorobenzonitrile] | No significant | improved stability and solubility | 880 µg/mL (≈ 1950 µM) | Poor crystallinity | good thermal stability |  |  |  | 
